Measurements taken from patent publication US6355799B1, “Substituted benzene compounds, process for their preparation, and herbicidal and defoliant compositions containing them” (ISK Americas Incorporated, priority 1997, dated 2002).

Tests used:
Type in all cases: in vivo
[1] = test system: field corn (Zea mays L., var. Dekalb 535, CORN); assay: Pre-emerge test, crop safety; conditions: crop damage, pre-emerge, phytotoxicity rating 0-100 at 14 days after application
Procedure, shortened: (§1)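 Rating: 0–100 visual injury, 14 DAA. Application: acetone, 187 l/ha, 15–1000 g ai/ha, flat-fan track sprayer with nozzle 40–45 cm above soil or canopy. Post-emerge runs used 0.25% v/v surfactant on 2–3 leaf plants.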

[2] = test system: upland rice (Oryza sp., var. Tebonnet, RICE); assay: Pre-emerge test, crop safety; conditions: crop damage, pre-emerge, phytotoxicity rating 0-100 at 14 days after application
Procedure, shortened: as §1

[3] = test system: soybean (Glycine max L., var. Pella 86, SOY); assay: Pre-emerge test, crop safety; conditions: crop damage, pre-emerge, phytotoxicity rating 0-100 at 14 days after application
Procedure, shortened: as §1

[4] = test system: redroot pigweed (Amaranthus retroflexus, AMARE); assay: Pre-emerge test, greenhouse herbicide activity screening; conditions: pre-emerge, phytotoxicity rating 0-100 at 14 days after application
Procedure, shortened: (§2)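 Visual ratings on a 0-100 scale (0 no damage, 100 all plants dead) were taken at 14 days after treatment. Rates of 15-1000 g ai/ha in acetone, 187 l/ha, were sprayed onto soil one day after planting (pre-emerge) or onto 2-3 leaf plants with 0.25% v/v surfactant (post-emerge).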

[5] = test system: lambsquarters (Chenopodium album, CHEAL); assay: Post-emerge test, greenhouse herbicide activity screening; conditions: post-emerge, phytotoxicity rating 0-100 at 14 days after application
Procedure, shortened: as §2

[6] = test system: redroot pigweed (Amaranthus retroflexus, AMARE); assay: as above; conditions: post-emerge, phytotoxicity rating 0-100 at 14 days after application
Procedure, shortened: as §2

[7] = test system: velvetleaf (Abutilon theophrasti, ABUTH); assay: as above; conditions: post-emerge, phytotoxicity rating 0-100 at 14 days after application
Procedure, shortened: as §2

[8] = test system: barnyardgrass (Echinochloa crus-galli, ECHCG); assay: as above; conditions: post-emerge, phytotoxicity rating 0-100 at 14 days after application
Procedure, shortened: as §2

[9] = test system: green foxtail (Setaria viridis, SETVI); assay: as above; conditions: post-emerge, phytotoxicity rating 0-100 at 14 days after application
Procedure, shortened: as §2

[10] = test system: large crabgrass (Digitaria sanguinalis, DIGSA); assay: as above; conditions: post-emerge, phytotoxicity rating 0-100 at 14 days after application
Procedure, shortened: as §2

[11] = test system: ivyleaf morningglory (Ipomoea hederacea, IPOHE); assay: as above; conditions: post-emerge, phytotoxicity rating 0-100 at 14 days after application
Procedure, shortened: as §2

[12] = test system: johnsongrass (Sorghum halepense, SORHA); assay: as above; conditions: post-emerge, phytotoxicity rating 0-100 at 14 days after application
Procedure, shortened: as §2

[13] = test system: sicklepod (Cassia obtusifolia, CASOB); assay: as above; conditions: post-emerge, phytotoxicity rating 0-100 at 14 days after application
Procedure, shortened: as §2

[14] = test system: lambsquarters (Chenopodium album, CHEAL); assay: Pre-emerge test, greenhouse herbicide activity screening; conditions: pre-emerge, phytotoxicity rating 0-100 at 14 days after application
Procedure, shortened: (§3)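 Applied at 15–1000 g ai/ha from acetone in 187 l/ha spray volume. Post-emergence applications included 0.25% v/v non-ionic surfactant and reached plants sown 8–21 days before. Pre-emergence applications were incorporated by surface watering. Efficacy or crop damage was rated on a 0–100 scale after 14 days.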

[15] = test system: velvetleaf (Abutilon theophrasti, ABUTH); assay: as above; conditions: pre-emerge, phytotoxicity rating 0-100 at 14 days after application
Procedure, shortened: as §3

[16] = test system: barnyardgrass (Echinochloa crus-galli, ECHCG); assay: as above; conditions: pre-emerge, phytotoxicity rating 0-100 at 14 days after application
Procedure, shortened: as §3

[17] = test system: green foxtail (Setaria viridis, SETVI); assay: as above; conditions: pre-emerge, phytotoxicity rating 0-100 at 14 days after application
Procedure, shortened: as §3

[18] = test system: large crabgrass (Digitaria sanguinalis, DIGSA); assay: as above; conditions: pre-emerge, phytotoxicity rating 0-100 at 14 days after application
Procedure, shortened: as §3

[19] = test system: ivyleaf morningglory (Ipomoea hederacea, IPOHE); assay: as above; conditions: pre-emerge, phytotoxicity rating 0-100 at 14 days after application
Procedure, shortened: as §3

[20] = test system: johnsongrass (Sorghum halepense, SORHA); assay: as above; conditions: pre-emerge, phytotoxicity rating 0-100 at 14 days after application
Procedure, shortened: as §3

[21] = test system: sicklepod (Cassia obtusifolia, CASOB); assay: as above; conditions: pre-emerge, phytotoxicity rating 0-100 at 14 days after application
Procedure, shortened: as §3

[22] = test system: field corn (Zea mays L., var. Dekalb 535, CORN); assay: Post-emerge test, crop safety; conditions: post-emerge, crop damage rating 0-100 at 14 days after application
Procedure, shortened: as §3

[23] = test system: upland rice (Oryza sp., var. Tebonnet, RICE); assay: Post-emerge test, crop safety; conditions: post-emerge, crop damage rating 0-100 at 14 days after application
Procedure, shortened: as §3

[24] = test system: soybean (Glycine max L., var. Pella 86, SOY); assay: Post-emerge test, crop safety; conditions: crop damage rating 0-100 at 14 days after application
Procedure, shortened: as §3

For `C#CCOc1c(Cl)cc(F)c(-n2nnn(CCCF)c2=O)c1N` [Compound 5-17, 1-(2-amino-4-chloro-6-fluoro-3-propargyloxyphenyl)-4-(3-fluoroproyl)-1,4-dihydro-5-oxo-5H-tetrazole], the “Pre-emerge Herbicidal Activity CORN” value ([1]; rate 63 g ai/ha) was 0, the “Pre-emerge Herbicidal Activity CORN” value ([1]; rate 250 g ai/ha) was 0 and the “Pre-emerge Herbicidal Activity RICE” value ([2]; rate 63 g ai/ha) was 20. The “Pre-emerge Herbicidal Activity RICE” value ([2]; rate 250 g ai/ha) was 20, the “Pre-emerge Herbicidal Activity SOY” value ([3]; rate 63 g ai/ha) was 0 and the “Pre-emerge Herbicidal Activity SOY” value ([3]; rate 250 g ai/ha) was 0. For the same molecule, the “Pre-emerge Herbicidal Activity AMARE” value ([4]; rate 63 g ai/ha) was 30, the “Pre-emerge Herbicidal Activity AMARE” value ([4]; rate 250 g ai/ha) was 100 and the “Post-emerge Herbicidal Activity CHEAL” value ([5]; 63 g ai/ha) was 20. For the same molecule, the “Post-emerge Herbicidal Activity CHEAL” value ([5]; 250 g ai/ha) was 60, the “Post-emerge Herbicidal Activity AMARE” value ([6]; 63 g ai/ha) was 0 and the “Post-emerge Herbicidal Activity AMARE” value ([6]; 250 g ai/ha) was 30. For the same molecule, the “Post-emerge Herbicidal Activity ABUTH” value ([7]; 63 g ai/ha) was 90, the “Post-emerge Herbicidal Activity ABUTH” value ([7]; 250 g ai/ha) was 100 and the “Post-emerge Herbicidal Activity ECHCG” value ([8]; 63 g ai/ha) was 0. The “Post-emerge Herbicidal Activity ECHCG” value ([8]; 250 g ai/ha) was 20, the “Post-emerge Herbicidal Activity SETVI” value ([9]; 63 g ai/ha) was 0 and the “Post-emerge Herbicidal Activity SETVI” value ([9]; 250 g ai/ha) was 80. For the same molecule, the “Post-emerge Herbicidal Activity DIGSA” value ([10]; 63 g ai/ha) was 0, the “Post-emerge Herbicidal Activity DIGSA” value ([10]; 250 g ai/ha) was 0 and the “Post-emerge Herbicidal Activity IPOHE” value ([11]; 63 g ai/ha) was 30. The “Post-emerge Herbicidal Activity IPOHE” value ([11]; 250 g ai/ha) was 40, the “Post-emerge Herbicidal Activity SORHA” value ([12]; 63 g ai/ha) was 0 and the “Post-emerge Herbicidal Activity SORHA” value ([12]; 250 g ai/ha) was 10. The “Post-emerge Herbicidal Activity CASOB” value ([13]; 63 g ai/ha) was 0, the “Post-emerge Herbicidal Activity CASOB” value ([13]; 250 g ai/ha) was 30 and the “Pre-emerge Herbicidal Activity CHEAL” value ([14]; rate 63 g ai/ha) was 70. The “Pre-emerge Herbicidal Activity CHEAL” value ([14]; rate 250 g ai/ha) was 100, the “Pre-emerge Herbicidal Activity ABUTH” value ([15]; rate 63 g ai/ha) was 40 and the “Pre-emerge Herbicidal Activity ABUTH” value ([15]; rate 250 g ai/ha) was 100. The “Pre-emerge Herbicidal Activity ECHCG” value ([16]; rate 63 g ai/ha) was 0, the “Pre-emerge Herbicidal Activity ECHCG” value ([16]; rate 250 g ai/ha) was 40 and the “Pre-emerge Herbicidal Activity SETVI” value ([17]; rate 63 g ai/ha) was 95. For the same molecule, the “Pre-emerge Herbicidal Activity SETVI” value ([17]; rate 250 g ai/ha) was 100, the “Pre-emerge Herbicidal Activity DIGSA” value ([18]; rate 63 g ai/ha) was 30 and the “Pre-emerge Herbicidal Activity DIGSA” value ([18]; rate 250 g ai/ha) was 50. The “Pre-emerge Herbicidal Activity IPOHE” value ([19]; rate 63 g ai/ha) was 0, the “Pre-emerge Herbicidal Activity IPOHE” value ([19]; rate 250 g ai/ha) was 0 and the “Pre-emerge Herbicidal Activity SORHA” value ([20]; rate 63 g ai/ha) was 40. The “Pre-emerge Herbicidal Activity SORHA” value ([20]; rate 250 g ai/ha) was 70, the “Pre-emerge Herbicidal Activity CASOB” value ([21]; rate 63 g ai/ha) was 0 and the “Pre-emerge Herbicidal Activity CASOB” value ([21]; rate 250 g ai/ha) was 30. For the same molecule, the “Post-emerge Herbicidal Activity CORN” value ([22]; 63 g ai/ha) was 0, the “Post-emerge Herbicidal Activity CORN” value ([22]; 250 g ai/ha) was 10 and the “Post-emerge Herbicidal Activity RICE” value ([23]; 63 g ai/ha) was 10. The “Post-emerge Herbicidal Activity RICE” value ([23]; 250 g ai/ha) was 50, the “Post-emerge Herbicidal Activity SOY” value ([24]; 63 g ai/ha) was 15 and the “Post-emerge Herbicidal Activity SOY” value ([24]; 250 g ai/ha) was 70.
